{"source": "patent US11891601B2", "about": "“Method to enhance the transcription regulation of SUPT4H on genes containing repetitive nucleotide sequences” (National Yang-Ming University, priority 2018, dated 2024)", "tested_on": "HD-Drosophila expressing mutant HTT97Q", "experiment": "Rough eye phenotype in HD-Drosophila (Gmr-HTT97Q)", "assay_type": "in vivo, Drosophila melanogaster", "details": "10 μM 6CR in media, 4-day-old progenies", "experimental": "The Gmr-ga14-UAS-HTT97Q/cyo line expressing HTT97Q under the control of Gmr-gal4 in compound eyes was provided by MT SU (National Taiwan Normal University, Taipei, Taiwan). Fly stock was maintained and crossed at 25° C. on a standard cornmeal yeast agar medium.\nIn each compound treatment experiment, 15 Gmr-ga14-UAS-HTT97Q/cyo male flies were crossed with 15 Gmr-ga14-UAS-HTT-97Q/cyo females in a vial containing 10 mL of media supplemented with the testing compound at a final concentration of 10 μM 6CR (Sigma) or/and 100 μM Tropolone (Sigma). 6-chloropurine riboside (6CR) is a chemical reagent that inhibits the activity of SUPT4H by preventing the complex formation of SUPT4H/SUPT5H (Patent No.: US2018/0064744A1). Parent flies were removed after 7 days, and 4-day-old progenies carrying one Gmr-ga14-UAS-HTT97Q allele were collected for eye morphology examination. […] In each treatment group, flies were analyzed and normalized with control flies. […]\nPlease refer to FIG. 8. […] After parent fly removal, the 4-day-old progenies carrying one Gmr-ga14-UAS-HTT97Q allele were collected and analyzed for eye morphology. […] 4-day-old progenies as described above were collected and analyzed the levels of mutant HTT by Western blotting. α-tubulin was included and served as a loading control. […]", "data": [{"smiles": "OC[C@H]1O[C@@H](n2cnc3c(Cl)ncnc32)[C@H](O)[C@@H]1O", "note": "[6-chloropurine riboside (6CR), 6-chloropurine riboside]", "values": [{"measurement": "rescue of rough eye phenotype, 6CR alone", "result": "rescue effect"}]}]}
